Source: US20140010806A1, “Treatment of Ocular Diseases” (priority 2012, published 2014)

What was measured:
NF-κB [1] = assay: LPS induced inflammation in mice, activated NF-κB in spleen cell nuclei; format: in vivo, ICR mice; conditions: about 40 mg/kg i.p. 24 hours before and 1 hour after LPS; spleens 1.5 hours after LPS
Experimental: The capacity of selected compounds to treat LPS induced inflammation in mice was examined by a protocol similar to the protocol described above. Five groups of three ICR mice weighing about 30 g were each treated by intraperitoneal injection with 120 μL vehicle (30% sulfobutylether-cyclodextrin in water), androst-5-ene-3α,7β,16α,17β-tetrol in vehicle, androst-5-ene-3β,4β,16α,17β-tetrol in vehicle or 4β-acetoxyandrost-5-ene-3β,16α,17β-triol in vehicle. All drug and vehicle formulations were solutions, not suspensions. The sulfobutylether-cyclodextrin was obtained commercially (Cydex Pharmaceuticals, Inc., Lexena, Kans.). There were two vehicle control groups one group received vehicle alone and the other received vehicle plus LPS. […] Drug was administered at about 40 mg/kg (1.2 mg drug/animal for each administration of the drugs). Spleens were harvested from the animals at 1.5 hours after injection of LPS and spleen cells were lysed and assayed for activated NF-κB by isolating nuclei from spleen cells and measuring NF-κB from the lysed nuclei. […] The level of activated NF-κB in spleen cells from the animals that were treated with vehicle and no LPS, was essentially the same as the activated NF-κB in spleen cells from drug treated animals.

MG-63 cells = assay: Reversal of dexamethasone effects in MG-63 osteoblast cells; format: cell-based, human
Description: The capacity of 17α-ethynyl-5-androstene-3β,7β,17β-triol to reverse adverse effects of glucocorticoids in bone growth was shown in the human MG-63 osteosarcoma cell line. MG-63 cells are osteoblasts, which are cells that mediate bone growth. This cell line has been used extensively to study bone biology and to characterize the biological activity of compounds for treatment of bone loss conditions (e.g., B. D. Boyan et al., J. Biol. Chem., 264(20):11879-11886, 1989; L. C. Hofbauer et al., Endocrinology, 140(10):4382-4389, 1999). Adverse toxicities associated with elevated glucocorticoid levels include a decrease in the production of IL-6 and IL-8 by osteoblasts, including the MG-63 cell line, and an increase in the expression of the 11β-hydroxysteroid dehydrogenase type 1 enzyme (11β-HSD). Increased 11β-hydroxysteroid dehydrogenase type 1 enzyme results in increased levels of endogenous glucocorticoid activity by converting endogenous cortisone to the active cortisol, which inhibits bone growth. The 11β-HSD enzyme is expressed in liver, adipose tissue, brain and bone tissues. Cortisol generated by 11β-HSD-1 contributes to osteoporosis and disorders such as stroke, neuron death, depression and Parkinson Disease. Decreases in IL-6, IL-8 and osteoprotegerin are associated with decreased bone growth by osteoblasts.

[2] = system: experimental autoimmune encephalomyelitis (EAE); assay: PLP-induced experimental autoimmune encephalomyelitis (EAE); format: in vivo, SJL mice; conditions: for cumulative incidence of EAE or lethality: 0.1 mg q.d. po; for course of EAE compared to vehicle-treated mice: 0.1 mg q.d. po from clinical onset to day 30 post immunization; for mean cumulative score, follow-up period (day 31 to day 54, post treatment): after end of treatment on day 30
NF-κB [3] = assay: Kinetic analysis of NF-kB inhibition in vivo after LPS, ELISA of NF-κB in spleen cell nuclei; design: species or system mice; conditions: about 40 mg/kg i.p. 24 hours before LPS
Experimental: Kinetic analysis of NF-kB inhibition in vivo. […] In this study, mice were treated with 17α-ethynylandrost-5-ene-3β,7β,17β-triol (about 40 mg/kg, about 1.2 mg/animal) by intraperitoneal injection of a solution (not a suspension) of the compound in vehicle (120 μL vehicle; 30% sulfobutylether-cyclodextrin in water). The drug was injected 24 hours before intraperitoneal injection of bacterial LPS (about an LD50/24). The study used two groups of 12 animals, vehicle control or drug administered 24 hours before LPS challenge. Spleens were harvested from 3 animals from both groups just before LPS challenge and at 1.5, 2.0 and 2.5 hours after administration of LPS. Spleen cells were harvested and the level of activated NF-κB was measured by assay of NF-κB in nuclei.
Maximum NF-κB activation after LPS administration occurred at 1.5 hours in the vehicle controls, which was 4-fold increased over the pre-LPS level of activated NF-κB. The values for the vehicle control and drug treated animals are relative optical density units from ELISA measurement of NF-κB in nuclei from spleen cells.

[4] = system: popliteal lymph node cells; assay: reporter antigen popliteal lymph node (PLN) assay, immune suppression; format: in vivo, BALB/C mice; conditions: 0.1 and 1 mg/day oral gavage
Description: Analysis of immune suppression. Glucocorticoid steroids such as dexamethasone, prednisolone or hydrocortisone are typically immune suppressive and have significant toxicities associated with their use. Immune suppression was examined in a reporter antigen popliteal lymph node assay in mice essentially as previously described (C. Goebel et al., Inflamm. Res., 45(Suppl. 2):S85-S90, 1996; R. Pieters et al., Environmental Health Perspectives 107(Suppl. 5):673-677, 1999). […] In this protocol, the vehicle was 0.1% carboxymethylcellulose, 0.9% saline, 2% tween 80 and 0.05% phenol, which contained 17α-ethynylandrost-5-ene-3β,7β,17β-triol in suspension in drug treated animals. Assessment of activity included (1) measuring suppression of numbers of total lymphocytes, antigen specific IgM, IgG1 and IgG2a antibody secreting cells (ASC) (ELISPOT assay) in popliteal lymph node cells; (2) analysis of cell surface marker (CD4, CD8, CD19, F480, CD80, CD86) expression by flow cytometry of living cells in suspension; and (3) IL-4, TNFα and IFNγ production by lymphocytes in vitro (ELISA).
Groups (n=5 per group) of specific pathogen free BALB/C mice were used. […] The results were analyzed by two-tailed Student's t-test with equal variance. […] Single cell suspensions were prepared, resuspended in 1 mL PBS-BSA (1%) and counted. Cell numbers, IL-4, IL-5 and IFNγ were measured.

osteoprotegerin = assay: Osteoprotegerin levels in mice treated daily with dexamethasone; format: in vivo
Experimental: Osteoprotegerin levels in mice that were treated with vehicle and dexamethasone at 10 μg/day (positive control group) had 3.3 pmol/L osteoprotegerin, while animals treated with vehicle, dexamethasone and 17α-ethynyl-5-androstene-3β,7β,17β-triol at 4 mg/kg/day had 6.4 pmol/L osteoprotegerin (p<0.05).

EAE = conditions: administered at the same time the animals were immunized; cited from earlier work
[5] = compound at 10 nM, 30 nM dexamethasone

C[C@]12CC[C@H]3[C@@H]([C@@H](O)C=C4C[C@H](O)CC[C@@]43C)[C@@H]1C[C@@H](O)[C@@H]2O [3α,7β,16α,17β-tetrahydroxyandrost-5-ene]
decrease of the level of NF-κB activation compared to the LPS+vehicle control group (NF-κB [1]): about 50%
reversal of the decrease in osteoprotegerin synthesis by MG-63 cells (MG-63 cells; [5]): normal osteoprotegerin levels

C[C@]12CC[C@H]3[C@@H](CC=C4C[C@](O)(C(F)(F)F)CC[C@@]43C)[C@@H]1CC[C@@H]2O [3α-trifluoromethylandrost-5-ene-3β,17β-diol]
cumulative incidence of EAE or lethality [2]: none of these 3 compounds significantly influenced
course of EAE compared to vehicle-treated mice [2]: powerful anti-inflammatory properties
mean cumulative score, follow-up period (day 31 to day 54, post treatment) [2]: 10.8±10.3

C[C@]12CC[C@H]3[C@@H]([C@H](O)C=C4C[C@@H](O)CC[C@@]43C)[C@@H]1C[C@@H](O)[C@@H]2O [3β,7α,16α,17β-tetrahydroxyandrost-5-ene]
reversal of the decrease in osteoprotegerin synthesis by MG-63 cells (MG-63 cells; [5]): near normal osteoprotegerin levels

C[C@]12CC[C@H]3[C@@H]([C@@H](O)C=C4C[C@@H](O)CC[C@@]43C)[C@@H]1C[C@@H](O)[C@@H]2O [3β,7β,16α,17β-tetrahydroxyandrost-5-ene]
cumulative incidence of EAE or lethality [2]: none of these 3 compounds significantly influenced
course of EAE compared to vehicle-treated mice ([2]; listed as androst-5-ene-3β,7β,16α,17β-tetrol): powerful anti-inflammatory properties

CC(=O)O[C@@H]1C2=CC[C@H]3[C@@H]4C[C@@H](O)[C@H](O)[C@@]4(C)CC[C@@H]3[C@@]2(C)CC[C@@H]1O [4β-acetoxyandrost-5-ene-3β,16α,17β-triol]
decrease of the level of NF-κB activation compared to the LPS+vehicle control group (NF-κB [1]): about 50%

CC12CCC(O)CC1=CC(O)C1C2CCC2(C)C(O)C(O)CC12 (stereo not drawn) [5-androstene-3β,7β,16α,17β-triol]
reversal of the decrease in osteoprotegerin synthesis by MG-63 cells (MG-63 cells; compound at 0.1 μM, 30 nM dexamethasone): normal osteoprotegerin levels

C#C[C@]1(O)CC[C@H]2[C@@H]3[C@@H](O)C=C4C[C@@H](O)CC[C@]4(C)[C@H]3CC[C@@]21C [17α-ethynylandrost-5-ene-3β,7β,17β-triol]
NF-κB in nuclei from spleen cells (NF-κB [3]; 0 hours (just before LPS)): 22 relative optical density units
NF-κB in nuclei from spleen cells (NF-κB [3]; 1.5 hours after LPS): 2 relative optical density units
NF-κB in nuclei from spleen cells (NF-κB [3]; 2.0 hours after LPS): 7 relative optical density units
NF-κB in nuclei from spleen cells (NF-κB [3]; 2.5 hours after LPS): 9 relative optical density units
immune suppression in PLN assay [4]: not immune suppressive, but was immune enhancing
reversal of the decrease in osteoprotegerin synthesis by MG-63 cells (MG-63 cells; compound at 1 nM, 7 hours with 30 nM dexamethasone): completely reversed
osteoprotegerin levels in mice (osteoprotegerin; vehicle, dexamethasone 10 μg/day and compound at 4 mg/kg/day, 23 days, p<0.05): 6.4 pmol/L

C[C@]12CC[C@H](O)CC1=CC[C@@H]1[C@@H]2CC[C@@]2(C)[C@H]1CC[C@@]2(O)C(F)(F)F [17α-trifluoromethylandrost-5-ene-3β,17β-diol]
cumulative incidence of EAE or lethality [2]: none of these 3 compounds significantly influenced
course of EAE compared to vehicle-treated mice [2]: powerful anti-inflammatory properties

C#C[C@@]1(O)CC[C@H]2[C@@H]3[C@@H](O)C=C4C[C@@H](O)CC[C@]4(C)[C@H]3CC[C@@]21C [17β-ethynylandrost-5-ene-3β,7β,17α-triol]
course of EAE compared to vehicle-treated mice [2]: powerful anti-inflammatory properties
mean cumulative score, follow-up period (day 31 to day 54, post treatment) [2]: 18.4±20.6

Cc1cc(C)c(/C=C2\C(=O)Nc3ccccc32)[nH]1 [SU5416, Z-3-[(2,4-dimethylpyrrol-5-yl)methylidenyl]-2-indolinone, reference compound]
course of EAE compared to vehicle-treated mice [2]: ineffective
efficacy in EAE (EAE): effective

C[C@]12CC[C@H]3[C@@H](CC=C4[C@@H](O)[C@@H](O)CC[C@@]43C)[C@@H]1C[C@@H](O)[C@@H]2O [androst-5-ene-3β,4β,16α,17β-tetrol]
decrease of the level of NF-κB activation compared to the LPS+vehicle control group (NF-κB [1]): about 50%

C[C@@H]1C[C@H]2[C@@H]3CCC4=CC(=O)C=C[C@]4(C)[C@@]3(F)[C@@H](O)C[C@]2(C)[C@@]1(O)C(=O)CO [dexamethasone, reference compound]
osteoprotegerin levels in mice (osteoprotegerin; vehicle and dexamethasone at 10 μg/day for 23 days (positive control group)): 3.3 pmol/L
